Data on six molecules can be found in ChEMBL document CHEMBL2417543, “Potential neuroprotective flavonoid-based inhibitors of CDK5/p25 from Rhus parviflora” (Bioorg Med Chem Lett, 2013).

The structures appear in SMILES notation. pIC50: −log10 of the molar value.

One may read the pIC50 as the IC50 on a negative log10 scale, so that one unit is a factor of ten.

Common to all, as to assay type: protein-complex assay
Assay [1] has as its target T1, Cyclin-dependent kinase 5/CDK5 activator 1 (Homo sapiens) (UniProt Q00535+Q15078). As to the kind of experiment: Inhibition of CDK5/p25 (unknown origin)-mediated incorporation of gamma33P into substrate assessed as change in enzyme activity at 50 uM after 20 mins by scintillation counting analysis in presence of 33P-ATP relative to negative control. Also noted: scale not given: the % may be the effect or the level left.

The target in assay [2] is T1, Cyclin-dependent kinase 5/CDK5 activator 1 (Homo sapiens). The assay is described as follows: Inhibition of CDK5/p25 (unknown origin)-mediated incorporation of gamma33P into substrate assessed as change in enzyme activity at 5 uM after 20 mins by scintillation counting analysis in presence of 33P-ATP relative to negative control. Also noted: scale not given: the % may be the effect or the level left.

The target is the same in assay [3]. As to the kind of experiment: Inhibition of CDK5/p25 (unknown origin)-mediated incorporation of gamma33P into substrate assessed as change in enzyme activity at 0.5 uM after 20 mins by scintillation counting analysis in presence of 33P-ATP relative to negative control. Also noted: scale not given: the % may be the effect or the level left.
The target is the same in assay [4]. The assay is described as follows: Inhibition of CDK5/p25 (unknown origin)-mediated incorporation of gamma33P into substrate assessed as change in enzyme activity at 0.05 uM after 20 mins by scintillation counting analysis in presence of 33P-ATP relative to negative control. Also on record: scale not given: the % may be the effect or the level left.
The target is the same in assay [5]. As to the kind of experiment: Inhibition of CDK5/p25 (unknown origin)-mediated incorporation of gamma33P into substrate assessed as change in enzyme activity at 0.005 uM after 20 mins by scintillation counting analysis in presence of 33P-ATP relative to negative control. Also noted: scale not given: the % may be the effect or the level left.
For assay [6], the target named is T2, Cyclin-dependent kinase 5/CDK5 activator 1 (Homo sapiens, UniProt Q00535). As to the kind of experiment: Inhibition of CDK5/p25 (unknown origin)-mediated incorporation of gamma33P into substrate after 20 mins by scintillation counting analysis in presence of 33P-ATP.
T2 sequence (Q00535 whole entry): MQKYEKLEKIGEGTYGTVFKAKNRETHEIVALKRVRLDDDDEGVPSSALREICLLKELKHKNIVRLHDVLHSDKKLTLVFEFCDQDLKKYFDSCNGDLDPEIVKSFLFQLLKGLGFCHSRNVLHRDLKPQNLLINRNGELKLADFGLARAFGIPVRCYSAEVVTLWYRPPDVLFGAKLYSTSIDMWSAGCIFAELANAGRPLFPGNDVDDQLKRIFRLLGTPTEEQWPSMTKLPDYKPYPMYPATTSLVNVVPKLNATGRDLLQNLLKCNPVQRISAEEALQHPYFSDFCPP
T2 sequence (Q15078 whole entry, further chain): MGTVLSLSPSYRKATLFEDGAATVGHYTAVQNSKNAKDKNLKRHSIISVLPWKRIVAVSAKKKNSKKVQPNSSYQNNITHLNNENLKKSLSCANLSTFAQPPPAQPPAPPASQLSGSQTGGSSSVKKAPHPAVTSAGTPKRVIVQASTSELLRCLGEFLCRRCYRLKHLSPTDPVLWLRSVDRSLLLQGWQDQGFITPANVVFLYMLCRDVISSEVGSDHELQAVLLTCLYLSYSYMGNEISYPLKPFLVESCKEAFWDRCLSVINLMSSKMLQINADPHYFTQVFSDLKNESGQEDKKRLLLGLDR
Assay [7] has as its target T2, Cyclin-dependent kinase 5/CDK5 activator 1. As to the kind of experiment: Inhibition of CDK5/p25 (unknown origin) after 30 mins by SDS-PAGE analysis.

T1 sequence (Q00535 whole entry): as the sequence (Q00535 whole entry) above
T1 sequence (Q15078 99-307 partner limits assumed): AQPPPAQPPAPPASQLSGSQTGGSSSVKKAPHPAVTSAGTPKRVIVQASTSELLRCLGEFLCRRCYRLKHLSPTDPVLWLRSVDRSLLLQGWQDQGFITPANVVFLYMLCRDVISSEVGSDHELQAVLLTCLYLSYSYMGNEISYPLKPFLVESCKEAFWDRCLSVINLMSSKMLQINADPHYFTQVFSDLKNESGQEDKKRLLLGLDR

In the case of `O=C1c2c(O[C@@H]3O[C@H](CO)[C@@H](O)[C@H](O)[C@H]3O)cc(O)cc2OC1(O)Cc1ccc(O)cc1` (some centres undefined), the Activity in assay [1] is -15%; in assay [2], -7%; in assay [3], 2%; in assay [4] it was 1%; in assay [5], -3%. In addition, the pIC50 in assay [6] was less than 4.30; in assay [7] it was 4.35.
In turn, `O=C1/C(=C/c2ccc(O)c(O)c2)Oc2cc(O)ccc21` [SULFURETIN] showed a pIC50 in assay [7] of 4.43.
Turning to `O=C1/C(=C/c2ccc(O)c(O)c2)Oc2cc(O[C@@H]3O[C@H](CO)[C@@H](O)[C@H](O)[C@H]3O)cc(O)c21`, the Activity in assay [1] was -65%; in assay [2] it was -20%; in assay [3], -5%; in assay [4], -4%; in assay [5], -2%. Also, the pIC50 was 4.61 in assay [6] and 4.65 in assay [7].
`O=c1cc(-c2ccc(O)cc2)oc2c(-c3c(O)cc(O)c4c(=O)cc(-c5ccc(O)cc5)oc34)c(O)cc(O)c12` [CUPRESSUFLAVONE] showed a pIC50 in assay [7] of 5.03.
`O=c1c(O[C@@H]2O[C@H](CO)[C@H](O)[C@H](O)[C@H]2O)c(-c2ccc(O)c(O)c2)oc2cc(O)cc(O)c12` [HYPEROSIDE]: in assay [7], the pIC50 was 4.99.
Take `O=C1/C(=C/c2ccc(O)c(O)c2)Oc2cc(O)cc(O)c21` [AUREUSIDIN]: the Activity in assay [1] was -88%; in assay [2], -47%; in assay [3] it was -20%; in assay [4], -2%; in assay [5] it was 0%. For the same molecule, the pIC50 in assay [6] is 5.32; in assay [7], 5.46.
